# Measured values as given in article PMC7618541 (Science (New York, N.Y.), 2025).
# Experiments:
# [1] = target: phosphoribosyl pyrophosphate amidotransferase (PPAT) (Homo sapiens, UniProt Q06203); assay: GDH-coupled NADH fluorescence assay of purified PPAT; assay type: biochemical
# [2] = target: Nudix hydrolase 5 (NUDT5) (Homo sapiens, UniProt Q9UKK9); assay: PROTAC degradation of endogenous NUDT5 in cells, western blot, […] h; assay type: cell-based
# phosphoribosyl pyrophosphate amidotransferase (PPAT), sequence (Q06203 12-517): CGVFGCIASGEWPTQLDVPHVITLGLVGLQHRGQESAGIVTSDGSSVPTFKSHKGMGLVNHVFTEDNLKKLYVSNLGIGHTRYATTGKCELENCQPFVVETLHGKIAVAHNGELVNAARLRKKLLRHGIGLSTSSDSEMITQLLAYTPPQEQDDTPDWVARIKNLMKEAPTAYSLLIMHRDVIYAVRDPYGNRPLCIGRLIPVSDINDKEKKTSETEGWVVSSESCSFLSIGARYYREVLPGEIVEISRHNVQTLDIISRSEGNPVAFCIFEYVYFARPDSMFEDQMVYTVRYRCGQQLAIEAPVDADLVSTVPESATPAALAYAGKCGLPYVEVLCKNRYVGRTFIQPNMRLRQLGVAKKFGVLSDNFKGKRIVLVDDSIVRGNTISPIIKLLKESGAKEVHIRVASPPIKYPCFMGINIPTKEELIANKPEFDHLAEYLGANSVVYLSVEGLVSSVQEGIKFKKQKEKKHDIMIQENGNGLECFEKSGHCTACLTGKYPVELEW
smiles,measurement,setting,value
NC(=O)CC[C@H](N)C(=O)O [glutamine],GDH-coupled NADH fluorescence assay of purified PPAT,[1],the first half reaction of PPAT reaction was assayed by monitoring the production of glutamate from glutamine
Cn1c(=O)c2c(nc(N3CCN(C(=O)N4CCC(CN5CCN(c6ccc7c(c6)C(=O)N(C6CCC(=O)NC6=O)C7=O)CC5)CC4)CC3)n2Cc2nnc(-c3ccc(Cl)c(Cl)c3)o2)n(C)c1=O (centres unmarked) [dNUDT5],"PROTAC degradation of endogenous NUDT5 in cells, western blot, 20 h",[2],100 nM
